{"source": "patent US9241887B2", "about": "“Systems and methods for skin rejuvenation” (Sesvalia USA, LLC, priority 2009, dated 2016)", "key": {"[1]": {"test": "Antioxidant activity of active ingredients alone and combined (FIG. 1)", "settings": "for antioxidant activity relative to vehicle: ingredient alone, control = vehicle (mixture of ethanol and macrogol); for synergistic effect on antioxidant activity: ingredients combined; for antioxidant activity when combined with Vitamin C and Vitamin E: polyphenol derivatives combined with Vitamin C and Vitamin E"}, "[2]": {"settings": "phospholipidic membranes; cited from earlier work"}, "[3]": {"tested_on": "human skin", "settings": "cited from earlier work"}, "[4]": {"settings": "cited from earlier work"}, "[5]": {"settings": "gastrointestinal tract and skin; cited from earlier work"}, "[6]": {"tested_on": "human polymorphonuclear leukocytes", "settings": "cited from earlier work"}, "[7]": {"tested_on": "seasonal allergic rhinoconjunctivitis", "settings": "oral supplementation; cited from earlier work"}, "[8]": {"tested_on": "human keratinocyte cell lines", "settings": "cited from earlier work"}, "[9]": {"tested_on": "mild atopic dermatitis", "settings": "0.3% rosmarinic acid emulsion, topical application; cited from earlier work"}}}
{"compound": "O=C1O[C@H]([C@@H](O)CO)C(O)=C1O", "note": "[Vitamin C, ascorbic acid]", "values": [{"measurement": "antioxidant activity relative to vehicle", "setting": "[1]", "value": "more than twice as much antioxidant activity as the vehicle"}, {"measurement": "synergistic effect on antioxidant activity", "setting": "[1]", "value": "synergistic effect"}]}
{"compound": "O=C(O)/C=C/c1ccc(O)c(O)c1", "note": "[caffeic acid, 3,4-dihydroxycinnamic acid]", "values": [{"measurement": "antioxidant activity when combined with Vitamin C and Vitamin E", "setting": "[1]", "value": "stronger antioxidant activity (more than twice)"}, {"measurement": "protection from UV-induced peroxidation", "setting": "[2]", "value": "protect phospholipidic membranes from UV-induced peroxidation"}, {"measurement": "protection from UVB-induced erythema", "setting": "[3]", "value": "protect human skin from UVB-induced erythema"}]}
{"compound": "COc1cc(/C=C/C(=O)O)ccc1O", "note": "[ferulic acid, Ferulic acid]", "values": [{"measurement": "synergistic effect on antioxidant activity", "setting": "[1]", "value": "synergistic effect"}, {"measurement": "antioxidant activity when combined with Vitamin C and Vitamin E", "setting": "[1]", "value": "stronger antioxidant activity (more than twice)"}, {"measurement": "behaviour at acidic pH", "setting": "[4]; acidic pH", "value": "precipitates into crystals"}]}
{"compound": "O=C(CCc1ccc(O)cc1)c1c(O)cc(O)cc1O", "note": "[phloretin, Phloretin]", "values": [{"measurement": "synergistic effect on antioxidant activity", "setting": "[1]", "value": "synergistic effect"}, {"measurement": "antioxidant activity when combined with Vitamin C and Vitamin E", "setting": "[1]", "value": "stronger antioxidant activity (more than twice)"}, {"measurement": "solubility in ethanol", "setting": "[4]", "value": "very soluble in ethanol"}, {"measurement": "solubility in water", "setting": "[4]", "value": "insoluble in water"}]}
{"compound": "O=C(/C=C/c1ccc(O)c(O)c1)O[C@H](Cc1ccc(O)c(O)c1)C(=O)O", "note": "[rosmarinic acid, alpha-o-caffeoyl-3,4-dihydroxyphenyl lactic acid]", "values": [{"measurement": "antioxidant activity when combined with Vitamin C and Vitamin E", "setting": "[1]", "value": "stronger antioxidant activity (more than twice)"}, {"measurement": "absorption", "setting": "[5]", "value": "well absorbed through the gastrointestinal tract and the skin"}, {"measurement": "leukotriene B4 production", "setting": "[6]", "value": "reduce leukotriene B4 production"}, {"measurement": "prostaglandin E2 production", "setting": "[6]", "value": "augment prostaglandin E2 production"}, {"measurement": "treatment of seasonal allergic rhinoconjunctivitis", "setting": "[7]", "value": "effective treatment for seasonal allergic rhinoconjunctivitis"}, {"measurement": "photoprotective effect against UVA-induced alterations", "setting": "[8]", "value": "photoprotective effects against alterations induced by UVA exposure"}, {"measurement": "symptoms of mild atopic dermatitis", "setting": "[9]", "value": "improves some symptoms of the disease including the erythema, transepidermal water loss, xerosis and pruritus"}]}
{"compound": "Vitamin E", "values": [{"measurement": "antioxidant activity relative to vehicle", "setting": "[1]", "value": "more than twice as much antioxidant activity as the vehicle"}]}
